Laboratory results: patent US20250122174A1 (Shenzhen Yuanli Shenwan Innovative Medicine Co., Ltd., priority 2022, published 2025)

biological target: HPK1 (Homo sapiens (Human), UniProt Q92918); assay: HPK1 Inhibition Assay (ADP-Glo kinase assay); format: biochemical; conditions: ATP 10 μM
Procedure, shortened: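 ADP-Glo luminescence read-out after 1 h room-temperature kinase reaction with 10 μM ATP and 0.1 μg/ml MBP. Recombinant human HPK1 at 7.5 ng/μl; buffer 40 mM Tris pH 7.5, 20 mM MgCl2. Compounds serially diluted 5-fold over 10 points from 10 mM DMSO stock.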

HPK1, sequence (Q92918 1-346 limits assumed): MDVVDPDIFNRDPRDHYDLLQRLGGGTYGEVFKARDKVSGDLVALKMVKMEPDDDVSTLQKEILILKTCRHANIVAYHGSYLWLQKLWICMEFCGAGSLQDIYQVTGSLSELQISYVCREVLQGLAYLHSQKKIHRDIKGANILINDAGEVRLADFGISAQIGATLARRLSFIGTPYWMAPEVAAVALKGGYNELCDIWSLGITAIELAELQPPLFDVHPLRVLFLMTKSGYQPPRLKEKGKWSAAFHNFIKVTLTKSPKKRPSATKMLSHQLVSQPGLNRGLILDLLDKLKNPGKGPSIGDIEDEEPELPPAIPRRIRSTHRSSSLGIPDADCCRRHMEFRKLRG

IC50, < 100 nM:
CCn1ncc2c(N3CC[C@@H](N)C3)c(NC(=O)c3ccc(=O)n(-c4c(F)cccc4F)n3)ccc21 [Example 292, (R)-N-(4-(3-aminopyrrolidin-1-yl)-1-ethyl-1H-indazol-5-yl)-1-(2,6-difluorophenyl)-6-oxo-1,6-dihydropyridazine-3-carboxamide]
COCCn1ncc2c(N3CC[C@@H](N)C3)c(NC(=O)c3ccc(=O)n(-c4c(F)cccc4F)n3)cc(F)c21 [Example 293, (R)-N-(4-(3-aminopyrrolidin-1-yl)-7-fluoro-1-(2-methoxyethyl)-1H-indazol-5-yl)-1-(2,6-difluorophenyl)-6-oxo-1,6-dihydropyridazine-3-carboxamide]
CC(C)Cn1ncc2c(N3CC[C@@H](N)C3)c(NC(=O)c3ccc(=O)n(-c4c(F)cccc4F)n3)ccc21 [Example 294, (R)-N-(4-(3-aminopyrrolidin-1-yl)-1-isobutyl-1H-indazol-5-yl)-1-(2,6-difluorophenyl)-6-oxo-1,6-dihydropyridazine-3-carboxamide]
N[C@@H]1CCN(c2c(NC(=O)c3ccc(=O)n(-c4c(F)cccc4F)n3)ccc3c2cnn3CC2CC2)C1 [Example 295, (R)-N-(4-(3-aminopyrrolidin-1-yl)-1-(cyclopropylmethyl)-1H-indazol-5-yl)-1-(2,6-difluorophenyl)-6-oxo-1,6-dihydropyridazine-3-carboxamide]
C[C@@H]1CN(c2c(NC(=O)c3ccc(=O)n(-c4c(F)cccc4F)n3)ccc3c2cnn3C2CCC2)C[C@@H]1N [Example 296, N-(4-((3R,4R)-3-amino-4-methylpyrrolidin-1-yl)-1-cyclobutyl-1H-indazol-5-yl)-1-(2,6-difluorophenyl)-6-oxo-1,6-dihydropyridazine-3-carboxamide]
C[C@@H]1CN(c2c(NC(=O)c3ccc(=O)n(-c4c(F)cccc4F)n3)ccc3c2cnn3C2CCCCC2)C[C@@H]1N [Example 297, N-(4-((3R,4R)-3-amino-4-methylpyrrolidin-1-yl)-1-cyclohexyl-1H-indazol-5-yl)-1-(2,6-difluorophenyl)-6-oxo-1,6-dihydropyridazine-3-carboxamide]
C[C@@H]1CN(c2c(NC(=O)c3ccc(=O)n(-c4c(F)cccc4F)n3)ccc3c2cnn3C2CC2)C[C@@H]1N [Example 298, N-[4-[(3R,4R)-3-amino-4-methyl-pyrrolidin-1-yl]-1-cyclopropyl-indazol-5-yl]-1-(2,6-difluorophenyl)-6-oxo-pyridazine-3-carboxamide]
C[C@H]1CN(c2c(NC(=O)c3ccc(=O)n(-c4c(F)cccc4F)n3)ccc3c2cnn3C2CC2)C[C@@H]1N [Example 299, N-(4-((3R,4S)-3-amino-4-methylpyrrolidin-1-yl)-1-cyclopropyl-1H-indazol-5-yl)-1-(2,6-difluorophenyl)-6-oxo-1,6-dihydropyridazine-3-carboxamide]
N[C@H]1CN(c2c(NC(=O)c3ccc(=O)n(-c4c(F)cccc4F)n3)ccc3c2cnn3C2CC2)CC12CC2 [Example 300, (R)-N-(4-(7-amino-5-azaspiro[2.4]heptan-5-yl)-1-cyclopropyl-1H-indazol-5-yl)-1-(2,6-difluorophenyl)-6-oxo-1,6-dihydropyridazine-3-carboxamide]
N[C@@H]1CCN(c2c(NC(=O)c3ccc(=O)n(-c4c(F)cccc4F)n3)ccc3c2cnn3C2CC2)C1 [Example 301, (R)-N-(4-(3-aminopyrrolidin-1-yl)-1-cyclopropyl-1H-indazol-5-yl)-1-(2,6-difluorophenyl)-6-oxo-1,6-dihydropyridazine-3-carboxamide]
CC(C)(C)n1ncc2c(N3C[C@H](N)C4(CC4)C3)c(NC(=O)c3ccc(=O)n(-c4c(F)cccc4F)n3)ccc21 [Example 302, N-[4-[(7R)-7-amino-5-azaspiro[2.4]heptan-5-yl]-1-tert-butyl-indazol-5-yl]-1-(2,6-difluorophenyl)-6-oxo-pyridazine-3-carboxamide]
C[C@@H]1CN(c2c(NC(=O)c3ccc(=O)n(-c4c(F)cccc4F)n3)ccc3c2cnn3C(C)(C)C)C[C@@H]1N [Example 303, N-(4-((3R,4R)-3-amino-4-methylpyrrolidin-1-yl)-1-(tert-butyl)-1H-indazol-5-yl)-1-(2,6-difluorophenyl)-6-oxo-1,6-dihydropyridazine-3-carboxamide]
C[C@@H]1CN(c2c(NC(=O)c3ccc(=O)n(-c4c(F)cccc4F)n3)ccc3nn(C45CCC(CC4)CC5)cc23)C[C@@H]1N [Example 304, N-(4-((3R,4R)-3-amino-4-methylpyrrolidin-1-yl)-2-(bicyclo[2.2.2]octan-1-yl)-2H-indazol-5-yl)-1-(2,6-difluorophenyl)-6-oxo-1,6-dihydropyridazine-3-carboxamide]
C[C@@H]1CN(c2c(NC(=O)c3ccc(=O)n(-c4c(F)cccc4F)n3)ccc3nn(C45CC6CC(CC(C6)C4)C5)cc23)C[C@@H]1N [Example 305, N-(2-((3S,5S,7S)-adamantan-1-yl)-4-((3R,4R)-3-amino-4-methylpyrrolidin-1-yl)-2H-indazol-5-yl)-1-(2,6-difluorophenyl)-6-oxo-1,6-dihydropyridazine-3-carboxamide]
C[C@@H]1CN(c2c(NC(=O)c3ccc(=O)n(-c4c(F)cccc4F)n3)ccc3nn(C45CCC(CC4)C5)cc23)C[C@@H]1N [Example 306, N-(4-((3R,4R)-3-amino-4-methylpyrrolidin-1-yl)-2-(bicyclo[2.2.1]heptan-1-yl)-2H-indazol-5-yl)-1-(2,6-difluorophenyl)-6-oxo-1,6-dihydropyridazine-3-carboxamide]
C[C@@H]1CN(c2c(NC(=O)c3ccc(=O)n(-c4c(F)cccc4F)n3)ccc3nn(C4CC(F)(F)C4)cc23)C[C@@H]1N [Example 307, N-(4-((3R,4R)-3-amino-4-methylpyrrolidin-1-yl)-2-(3,3-difluorocyclobutyl)-2H-indazol-5-yl)-1-(2,6-difluorophenyl)-6-oxo-1,6-dihydropyridazine-3-carboxamide]
C[C@@H]1CN(c2c(NC(=O)c3ccc(=O)n(-c4c(F)cccc4F)n3)ccc3nn(C4CCN(C)CC4)cc23)C[C@@H]1N [Example 308, N-(4-((3R,4R)-3-amino-4-methylpyrrolidin-1-yl)-2-(1-methylpiperidin-4-yl)-2H-indazol-5-yl)-1-(2,6-difluorophenyl)-6-oxo-1,6-dihydropyridazine-3-carboxamide]
C[C@H]1CN(c2c(NC(=O)c3ccc(=O)n(-c4c(F)cccc4F)n3)ccc3nn(C4CC(F)(F)C4)cc23)C[C@@H]1N [Example 309, N-(4-((3R,4S)-3-amino-4-methylpyrrolidin-1-yl)-2-(3,3-difluorocyclobutyl)-2H-indazol-5-yl)-1-(2,6-difluorophenyl)-6-oxo-1,6-dihydropyridazine-3-carboxamide]
C[C@H]1CN(c2c(NC(=O)c3ccc(=O)n(-c4c(F)cccc4F)n3)ccc3nn(C4(C)CC4)cc23)C[C@@H]1N [Example 310, N-(4-((3R,4S)-3-amino-4-methylpyrrolidin-1-yl)-2-(1-methylcyclopropyl)-2H-indazol-5-yl)-1-(2,6-difluorophenyl)-6-oxo-1,6-dihydropyridazine-3-carboxamide]
CC1(n2cc3c(N4C[C@H](N)C5(CC5)C4)c(NC(=O)c4ccc(=O)n(-c5c(F)cccc5F)n4)ccc3n2)CC1 [Example 311, (R)-N-(4-(7-amino-5-azaspiro[2.4]heptan-5-yl)-2-(1-methylcyclopropyl)-2H-indazol-5-yl)-1-(2,6-difluorophenyl)-6-oxo-1,6-dihydropyridazine-3-carboxamide]
C[C@H]1CN(c2c(NC(=O)c3ccc(=O)n(-c4c(F)cccc4F)n3)ccc3nn(C45CCC(CC4)C5)cc23)C[C@@H]1N [Example 312, N-(4-((3R,4S)-3-amino-4-methylpyrrolidin-1-yl)-2-(bicyclo[2.2.1]heptan-1-yl)-2H-indazol-5-yl)-1-(2,6-difluorophenyl)-6-oxo-1,6-dihydropyridazine-3-carboxamide]
C[C@@H]1CN(c2c(NC(=O)c3ccc(=O)n(-c4c(F)cccc4F)n3)ccc3nn(C4(C(F)(F)F)CC4)cc23)C[C@@H]1N [Example 315, N-(4-((3R,4R)-3-amino-4-methylpyrrolidin-1-yl)-2-(1-(trifluoromethyl)cyclopropyl)-2H-indazol-5-yl)-1-(2,6-difluorophenyl)-6-oxo-1,6-dihydropyridazine-3-carboxamide]
C[C@@H]1CN(c2c(NC(=O)c3ccc(=O)n(-c4c(F)cccc4F)n3)ccc3nn(C45CC(C4)C5)cc23)C[C@@H]1N [Example 316, N-(4-((3R,4R)-3-amino-4-methylpyrrolidin-1-yl)-2-(bicyclo[1.1.1]pentan-1-yl)-2H-indazol-5-yl)-1-(2,6-difluorophenyl)-6-oxo-1,6-dihydropyridazine-3-carboxamide]
C[C@@H]1CN(c2c(NC(=O)c3ccc(=O)n(-c4c(F)cccc4F)n3)ccc3nn(C4(C)CCC4)cc23)C[C@@H]1N [Example 317, 1-(2,6-difluorophenyl)-N-{4-[(3R,4R)-3-amino-4-methyltetrahydro-1H-pyrrol-1-yl]-2-(methylcyclobutyl)indazol-5-yl}-6-oxo-1,2-diazine-3-carboxamide]
C[C@@H]1CN(c2c(NC(=O)c3ccc(=O)n(-c4c(F)cccc4F)n3)ccc3nn(C45CC(C)(C4)C5)cc23)C[C@@H]1N [Example 318, N-(4-((3R,4R)-3-amino-4-methylpyrrolidin-1-yl)-2-(3-methylbicyclo[1.1.1]pentan-1-yl)-2H-indazol-5-yl)-1-(2,6-difluorophenyl)-6-oxo-1,6-dihydropyridazine-3-carboxamide]
